In the CheMixHub viscosity set:

Assay: xn = mol fraction of the nth substance listed

CCCC(C)O (configuration not stated) + CN(C)C=O
viscosity [mPa·s], 101 kPa
Conditions | x2 = 0.109 | x2 = 0.1534 | x2 = 0.2404 | x2 = 0.345 | x2 = 0.4412 | x2 = 0.5603 | x2 = 0.6548 | x2 = 0.7436 | x2 = 0.8432 | x2 = 0.9376
298.15 K | 2.69 | 2.51 | 2.26 | 2.01 | 1.82 | 1.59 | 1.41 | 1.25 | 1.07 | 0.91
303.15 K | 2.23 | 2.05 | 1.84 | 1.65 | 1.51 | 1.33 | 1.21 | 1.08 | 0.96 | 0.84
308.15 K | 1.83 | 1.68 | 1.49 | 1.35 | 1.24 | 1.13 | 1.04 | 0.95 | 0.86 | 0.78
313.15 K | 1.54 | 1.4 | 1.24 | 1.13 | 1.05 | 0.97 | 0.91 | 0.86 | 0.79 | 0.72

CCCCNCCCC + CNC(C)=O
308.15 K, 101 kPa
Conditions | viscosity [mPa·s]
x1 = 0.0121 | 3.267
x2 = 0.0611 | 0.7366
x2 = 0.2864 | 1.116
x2 = 0.4546 | 1.522
x2 = 0.5799 | 1.89
x2 = 0.6904 | 2.25
x2 = 0.7866 | 2.584
x2 = 0.8542 | 2.828
x2 = 0.9262 | 3.06

CCCC(=O)O + CNC=O
viscosity [mPa·s], 100 kPa
Conditions | x2 = 0.1187 | x2 = 0.1967 | x2 = 0.2806 | x2 = 0.3708 | x2 = 0.5026 | x2 = 0.6111 | x2 = 0.6888 | x2 = 0.7711 | x2 = 0.9041
303.15 K | 1.415 | 1.434 | 1.455 | 1.476 | 1.504 | 1.524 | 1.537 | 1.55 | 1.57
308.15 K | 1.275 | 1.296 | 1.317 | 1.34 | 1.37 | 1.393 | 1.408 | 1.423 | 1.447
313.15 K | 1.136 | 1.159 | 1.183 | 1.208 | 1.242 | 1.269 | 1.286 | 1.305 | 1.334
318.15 K | 0.9979 | 1.024 | 1.052 | 1.08 | 1.12 | 1.152 | 1.174 | 1.197 | 1.233

CCCCNCCCC + CO
viscosity [mPa·s], 101 kPa
Conditions | x2 = 0.0931 | x2 = 0.1959 | x2 = 0.2948 | x2 = 0.3963 | x2 = 0.4955 | x2 = 0.6075 | x2 = 0.7011 | x2 = 0.7979 | x2 = 0.9185
303.15 K | 0.745 | 0.725 | 0.706 | 0.689 | 0.663 | 0.639 | 0.609 | 0.579 | 0.548
313.15 K | 0.643 | 0.626 | 0.61 | 0.595 | 0.569 | 0.549 | 0.525 | 0.501 | 0.476
323.15 K | 0.543 | 0.528 | 0.513 | 0.498 | 0.483 | 0.467 | 0.452 | 0.435 | 0.413
